In patent US8937067B2, “Activators of human pyruvate kinase” (The United States of America, as represented by the …, priority 2008, dated 2015):

Experiments:
hPK-M2 [1] = molecular target: T1, hPK-M2 (Homo sapiens, UniProt P14618); assay: Luminescent pyruvate kinase-luciferase coupled assay (KinaseGlo); format: biochemical; conditions: for activation at 57 µM / hPK, M2 Max. Res.: KinaseGlo, % activation at 57 μM of compound; for activation at 57 µM: read-out: hPK, M2 Max. Res.; for Emax: read-out: maximum response
Procedure, shortened: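 Activation assay with 0.1 mM ADP and 0.5 mM PEP in 50 mM imidazole pH 7.2, 50 mM KCl, 7 mM MgCl2, 0.01% tween 20, 0.05% BSA; 1 h at r.t. ATP produced was read by luciferase luminescence. AC50 values were normalized to DMSO (uninhibited enzyme) and no-enzyme controls.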

hPK-M2 [2] = molecular target: T1, hPK-M2; assay: Fluorescent pyruvate kinase-lactate dehydrogenase (LDH) coupled secondary assay; format: biochemical; conditions: for Emax: read-out: maximum response, LDH assay; for LDH hPK, M2 Max. Res.: % activation at 57 μM of compound
Method: Fluorescent Pyruvate Kinase-Lactate Dehydrogenase Coupled Secondary Assay.
Plates were immediately placed in ViewLux (Perkin Elmer) and NADH fluorescence was determined at 30 second exposure intervals for between 3 and 6 minutes. Data were normalized to the uninhibited and EC100 activation using known activators such as fructose-1,6-bis-phosphate. […] Data was collected on the Perkin Elmer Viewlux.

[3] = luciferase-coupled assay, relative to activation by FBP
[4] = luminescent pyruvate kinase-luciferase coupled assay (KinaseGlo), tables, read-out: hPK, M2 AC50
[5] = luciferase-coupled assay, read-out: AC50
[6] = tables, read-out: LDH hPK, M2 AC50

T1 sequence (P14618 whole entry): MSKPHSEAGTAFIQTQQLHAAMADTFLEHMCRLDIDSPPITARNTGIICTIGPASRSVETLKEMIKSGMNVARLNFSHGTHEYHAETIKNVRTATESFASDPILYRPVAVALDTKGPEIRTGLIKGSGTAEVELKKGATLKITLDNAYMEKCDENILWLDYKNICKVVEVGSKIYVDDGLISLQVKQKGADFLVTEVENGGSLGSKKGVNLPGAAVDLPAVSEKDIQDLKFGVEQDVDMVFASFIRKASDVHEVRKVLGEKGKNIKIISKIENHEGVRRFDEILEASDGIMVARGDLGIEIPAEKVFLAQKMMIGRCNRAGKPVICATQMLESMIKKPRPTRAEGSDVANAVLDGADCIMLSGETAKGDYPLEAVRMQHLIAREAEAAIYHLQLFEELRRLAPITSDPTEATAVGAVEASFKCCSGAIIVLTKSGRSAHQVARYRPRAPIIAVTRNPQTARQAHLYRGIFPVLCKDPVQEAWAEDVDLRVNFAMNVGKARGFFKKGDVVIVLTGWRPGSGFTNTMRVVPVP

Compound: O=S(=O)(c1cccc(F)c1)N1CCN(S(=O)(=O)c2ccc3c(c2)OCCO3)CC1 [Compound 7, 1-(2,3-dihydrobenzo[b][1,4]dioxin-6-ylsulfonyl)-4-(3-fluorophenylsulfonyl)piperazine]
- activation at 57 µM (hPK-M2 [1]): 107 ± 8.8%
- Emax (hPK-M2 [1]; [3]): 96.3%
- AC50 (hPK-M2 [1]; [4]): 0.316 µM
- Emax (hPK-M2 [2]): 259%

Compound: Cc1cc2c(s1)c1c(C)nn(Cc3ccccc3F)c(=O)c1n2C [Compound 92, 2,4,8-Methyl-6-[(2-fluorophenyl)methyl]-4H-thieno[3,2-b]pyrrole[3,241]-pyridazinone]
- Emax (hPK-M2 [1]; [3]): < 80%
- Emax (hPK-M2 [2]): < 80%

Compound: COc1ccc(Cn2ncc3c4sc(C)cc4n(C)c3c2=O)cc1F [Compound 121, 2,4-Methyl-6-[(3-fluoro-4-methoxyphenyl)methyl]-4H-thieno[3,2-b]pyrrole[3,2-d]pyridazinone]
- hPK, M2 Max. Res. (hPK-M2 [1]): 68.2 ± 7.9%
- AC50 (hPK-M2 [1]; [5]): 0.225 ± 0.097 µM
- maximum response (hPK-M2 [1]; [3]): 68.2%
- maximum response, LDH assay (hPK-M2 [2]): 135±20%
- AC50 (hPK-M2 [2]; read-out: AC50, LDH assay): 1 µM

Compound: COc1cc(F)c(S(=O)(=O)N2CCCN(S(=O)(=O)c3ccc(N)cc3)CC2)c(F)c1 [Compound 143]
- hPK, M2 Max. Res. (hPK-M2 [1]): 89.36%
- AC50 (hPK-M2 [1]; [4]): 1.3 µM
- LDH hPK, M2 Max. Res. (hPK-M2 [2]): 150.25%
- AC50 (hPK-M2 [2]; [6]): 1.3 µM

Compound: Cc1cc2c(s1)c1cnn(Cc3ccc(Cl)cc3)c(=O)c1n2C [Compound 108, 2,4-Methyl-6-[(4-chlorophenyl)methyl]-4H-thieno[3,2-b]pyrrole[3,2-d]pyridazinone]
- activation at 57 µM (hPK-M2 [1]): 90.6 ± 3.3%
- AC50 (hPK-M2 [1]; [4]): 0.326 ± 0.09 µM
- AC50 (hPK-M2 [2]; read-out: AC50, LDH assay): 1.65 µM
- Emax (hPK-M2 [2]): 191%

Compound: Nc1ccc(S(=O)(=O)N2CCN(S(=O)(=O)c3c(F)cccc3F)CC2)cc1 [Compound 123]
- activation at 57 µM (hPK-M2 [1]): 82.6%
- AC50 (hPK-M2 [1]; [4]): 0.651 µM
- LDH hPK, M2 Max. Res. (hPK-M2 [2]): 170.98%
- AC50 (hPK-M2 [2]; [6]): 0.41 µM

Compound: COc1cc(F)c(S(=O)(=O)N2CCN(S(=O)(=O)c3cccs3)CC2)c(F)c1 [Compound 144]
- hPK, M2 Max. Res. (hPK-M2 [1]): 95.08%
- AC50 (hPK-M2 [1]; [4]): 0.0366 µM
- LDH hPK, M2 Max. Res. (hPK-M2 [2]): 125.28%
- AC50 (hPK-M2 [2]; [6]): 0.0517 µM

Compound: Cn1c2cc(C=O)sc2c2cnn(Cc3ccccc3F)c(=O)c21 [Compound 84, 2-Formyl-4-methyl-6-[(2-fluorophenyl)methyl]-4H-thieno[3,2-b]pyrrole[3,2-d]pyridazinone]
- activation at 57 µM (hPK-M2 [1]): 99.8 ± 6.5%
- AC50 (hPK-M2 [1]; [4]): 0.016 ± 0.01 µM
- AC50 (hPK-M2 [2]; read-out: AC50, LDH assay): 0.1 ± 0.01 µM
- Emax (hPK-M2 [2]): 239%

Compound: Nc1cccc(S(=O)(=O)N2CCCN(S(=O)(=O)c3ccc4c(c3)OCCO4)CC2)c1 [Compound 124]
- activation at 57 µM (hPK-M2 [1]): 88.9%
- AC50 (hPK-M2 [1]; [4]): 0.0326 µM
- LDH hPK, M2 Max. Res. (hPK-M2 [2]): 169.71%

Compound: Cc1cc2c(s1)c1cnn(Cc3ccc(C(F)(F)F)cc3)c(=O)c1n2C [Compound 110, 2,4-Methyl-6-[(4-trifluoromethylphenyl)methyl]-4H-thieno[3,2-b]pyrrole[3,2-d]pyridazinone]
- activation at 57 µM (hPK-M2 [1]): 56.1 ± 5.4%
- AC50 (hPK-M2 [1]; [4]): 0.553 ± 0.13 µM
- AC50 (hPK-M2 [2]; read-out: AC50, LDH assay): 2.2 µM
- Emax (hPK-M2 [2]): 77%

Compound: Cn1c2ccsc2c2ncn(Cc3ccccc3F)c(=O)c21 [Compound 100, 4-Methyl-6-[(2-fluorophenyl)methyl]-4H-thieno[3,2-b]pyrrole[3,2-d]pyrimidinone]
- Emax (hPK-M2 [1]; [3]): < 80%
- Emax (hPK-M2 [2]): < 80%

Compound: O=S(=O)(c1ccc2ccccc2c1)N1CCN(S(=O)(=O)c2c(F)cccc2F)CC1 [Compound 26, 1-(2,6-difluorophenylsulfonyl)-4-(naphthalen-2-ylsulfonyl)piperazine]
- activation at 57 µM (hPK-M2 [1]): 138 ± 11.3%
- AC50 (hPK-M2 [1]; [4]): 0.066 µM
- AC50 (hPK-M2 [2]; read-out: AC50, LDH assay): 0.22 ± 0.053 µM
- Emax (hPK-M2 [2]): 161 ± 29%

Compound: COc1ccc(S(=O)(=O)N2CCN(S(=O)(=O)c3c(F)cccc3F)CC2)cc1 [Compound 21, 1-(2,6-difluorophenylsulfonyl)-4-(4-methoxyphenylsulfonyl)piperazine]
- activation at 57 µM (hPK-M2 [1]): 102 ± 9.2%
- AC50 (hPK-M2 [1]; [4]): 0.09 µM
- AC50 (hPK-M2 [2]; read-out: AC50, LDH assay): 0.211 ± 0.05 µM
- Emax (hPK-M2 [2]): 124 ± 30%

Compound: Cc1cc2c(s1)c1cnn(Cc3c(F)cccc3F)c(=O)c1n2C [Compound 113, 2,4-Methyl-6-[(2,6-difluorophenyl)methyl]-4H-thieno[3,2-b]pyrrole[3,2-d]pyridazinone]
- activation at 57 µM (hPK-M2 [1]): 93.8 ± 5%
- AC50 (hPK-M2 [1]; [4]): 0.049 ± 0.02 µM
- AC50 (hPK-M2 [2]; read-out: AC50, LDH assay): 0.14 ± 0.01 µM
- Emax (hPK-M2 [2]): 240%

Compound: O=C1CN(S(=O)(=O)c2c(F)cccc2F)CCN1S(=O)(=O)c1ccc2c(c1)OCCO2 [Compound 49, 4-(2,6-difluorophenylsulfonyl)-1-(2,3-dihydrobenzo[b][1,4]dioxin-6-ylsulfonyl)piperazin-2-one]
- activation at 57 µM (hPK-M2 [1]): 105 ± 9%
- AC50 (hPK-M2 [1]; [4]): 0.114 ± 0.02 µM
- AC50 (hPK-M2 [2]; read-out: AC50, LDH assay): 0.44 ± 0.24 µM
- Emax (hPK-M2 [2]): 87 ± 37%

Compound: O=S(=O)(c1ccc2c(c1)OCCCO2)N1CCN(S(=O)(=O)c2c(F)cccc2F)CC1 [Compound 23, 1-(2,6-difluorophenylsulfonyl)-4-(3,4-dihydro-2,1-benzo[b][1,4]dioxepin-7-ylsulfonyl)piperazine]
- activation at 57 µM (hPK-M2 [1]): 100 ± 6.6%
- AC50 (hPK-M2 [1]; [5]): 0.103 µM
- AC50 (hPK-M2 [2]; read-out: AC50, LDH assay): ~0.5 µM
- Emax (hPK-M2 [2]): 109 ± 11%
